In test [1] the test system is Spodoptera littoralis. The test can be described thus: Induction of imago developmental aberrations with imperfect wings in Spodoptera littoralis fed with diet containing compound at 110 umol/gm dry weight treated for 6 days measured after transferring onto control diet by chronic feeding bioassay. It counts as functional.
Test [2] has as its system Spodoptera littoralis. The test can be described thus: Change in pupal weight of Spodoptera littoralis fed with diet containing compound at 110 umol/gm dry weight treated for 6 days measured after transferring onto control diet by chronic feeding bioassay (reference value: 0.40 +/-0.05 gms). The format is functional.
Test [3] relates to Spodoptera littoralis. The test can be described thus: Toxicity against neonate larval stage of Spodoptera littoralis fed with diet containing compound assessed as reduction in larval survival at 15 to 110 umol/gm dry weight after 6 days by chronic feeding assay. The format is functional, organism-based.
The subject of test [4] is Spodoptera littoralis. The test can be described thus: Prolongation of duration of larval period in Spodoptera littoralis fed with diet containing compound at 110 umol/gm dry weight treated for 6 days measured after transferring onto control diet by chronic feeding bioassay (reference value: 17 to 20 days). It counts as functional.
Test [5] concerns Spodoptera littoralis. Put plainly: Growth retarding activity against neonate larval stage of Spodoptera littoralis fed with diet containing compound measured per gm of dry weight after 6 days by chronic feeding bioassay. Particulars: 144 h, read-out: ED50. It counts as functional.
For test [6], the system named is Spodoptera littoralis. Put plainly: Reduction in number of imagoes emerging from pupae in Spodoptera littoralis fed with diet containing compound at 110 umol/gm dry weight after 6 days by chronic feeding bioassay (reference value: 90%). It counts as functional. The arrangement: scale not given: the % may be the effect or the level left.
Test [7] deals with Spodoptera littoralis. The test can be described thus: Growth retarding activity against neonate larval stage of Spodoptera littoralis fed with diet containing compound assessed as larval weight at 104 umol/gm dry weight after 6 days by chronic feeding bioassay (reference value: 100%). The format is functional.
The subject of test [8] is Spodoptera littoralis. Put plainly: Growth retarding activity against neonate larval stage of Spodoptera littoralis fed with diet containing compound assessed as larval weight at 94 umol/gm dry weight after 6 days by chronic feeding bioassay (reference value: 100%). It counts as functional.
Test [9] concerns Spodoptera littoralis. Put plainly: Growth retarding activity against neonate larval stage of Spodoptera littoralis fed with diet containing compound assessed as larval weight after 6 days by chronic feeding bioassay (reference value: 100%). The format is functional.
Test [10] deals with Spodoptera littoralis. Put plainly: Growth retarding activity against neonate larval stage of Spodoptera littoralis fed with diet containing compound assessed as larval weight at 70 umol/gm dry weight after 6 days by chronic feeding bioassay (reference value: 100%). The format is functional.
Test [11] has as its system Spodoptera littoralis. Put plainly: Growth retarding activity against neonate larval stage of Spodoptera littoralis fed with diet containing compound assessed as larval weight at 41 umol/gm dry weight after 6 days by chronic feeding bioassay (reference value: 100%). It counts as functional.
Test [12] deals with Spodoptera littoralis. Put plainly: Toxicity against neonate larval stage of Spodoptera littoralis fed with diet containing compound assessed as reduction in larval survival measured per gm dry weight after 6 days by chronic feeding assay. It counts as functional. Particulars: 144 h, read-out: ED50.

Activity calls are given as the source filed them. The calls are words filed in the database; no cut-off is given here.

For `O=C1O/C(=C2/C(=O)Oc3ccccc32)C(O)=C1c1ccccc1` [CALYCIN], the Activity was 44% in [1] and 0.33 g in [2]. The outcome in test [3] was inactive. Also, the Time in test [4] is 21 days. Moreover, the EC50 in [5] worked out at 37.6 µmol/g.
On the same counts, the results for `COC(=O)/C(=C1/OC(=O)C(c2ccccc2)=C1O)c1ccccc1` [VULPINIC ACID] are 14%, 0.32 g, “inactive”, 23 days and 17.2 µmol/g.
As to `COc1cc(C(=O)O)c2c(c1C)OC(=O)c1c(C)cc(O)c(C=O)c1O2` [PSOROMIC ACID], in [2], the Activity amounted to 0.41 g. Further, in test [3], the outcome was inactive. In addition, the Time in test [4] was found to be 20 days. For the same compound, in test [5], the EC50 was determined as 46.2 µmol/g.
For the compound `COC(=O)C(Cc1ccccc1)NC(=O)/C(=C1/OC(=O)C(c2ccccc2)=C1O)c1ccccc1` (stereo not drawn) [RHIZOCARPIC ACID], the Activity was found to be 25% in test [6] and 0.28 g in test [2]. For the same compound, the outcome in test [3] was inactive. The Time in test [4] amounted to 19 days. Moreover, the EC50 in test [5] is 70.8 µmol/g.
Turning to `COc1cc(C)c2c(c1C=O)Oc1c(c(C)c(O)c3c1C(O)OC3=O)OC2=O` (stereo not drawn) [STICTIC ACID], the Activity in [7] is on record as 27%; in test [2], 0.41 g. Further, the result in test [3] was inactive. Besides, in test [4], the Time is 20 days. In test [5], the EC50 turned out to be 57.5 µmol/g.
`Cc1cc(O)c(C=O)c2c1C(=O)Oc1c(C)c(O)c3c(c1O2)C(O)OC3=O` (stereo not drawn) [NORSTICTIC ACID]: the results for the Activity in [8], in [9] and in test [2] were 18%, 18% and 0.33 g, respectively. Further, the outcome in test [3] was inactive. Further, the Time in test [4] came to 17 days. Moreover, the EC50 in test [5] came to 32 µmol/g.
With `COC(=O)c1c(C)cc(OC(=O)c2c(C)cc(O)c(C=O)c2O)c(C)c1O` [ATRANORIN], the Activity in test [10] worked out at 52%; in test [9], 51%. In test [3], the result was inactive. In addition, the EC50 in [5] was more than 110 µmol/g.
`CCCCCC(=O)Cc1cc(O)cc2c1C(=O)Oc1cc(O)c(C(=O)O)c(CCCCC)c1O2` [PHYSODIC ACID]: the outcome in [3] was inactive. The EC50 in [5] was more than 110 µmol/g.
In the case of `COc1cc(C)c(C(=O)Oc2cc(C)c(C(=O)O)c(O)c2)c(O)c1` [EVERNIC ACID], in test [3], the outcome was inactive. For the same compound, the EC50 in test [5] was more than 110 µmol/g.
In turn, `Cc1cc(O)c(C=O)c2c1C(=O)Oc1c(CO)c(O)c3c(c1O2)C(O)OC3=O` (stereo not drawn) [SLAZINIC ACID] yielded an Activity in [2] of 0.4 g. In addition, in test [3], the result was inactive. In [4], this compound returned a Time of 24 days. The EC50 in [5] is 29.2 µmol/g.
On to `CCCCCC(=O)Cc1cc(O)c(O)c2c1C(=O)Oc1cc(O)c(C(=O)O)c(CCCCC)c1O2` [OXYPHYSODIC ACID], for which the results for the Activity in test [11], in [1] and in [2] were 15%, 50% and 0.33 g, respectively. In addition, the outcome in [3] was inactive. This compound came in with a Time in test [4] of 19 days. Moreover, in test [5], the EC50 amounted to 11.2 µmol/g.
On to `CC(=O)C1=C(O)C=C2Oc3c(C(C)=O)c(O)c(C)c(O)c3[C@@]2(C)C1=O` [(+)-USNIC ACID], for which the EC50 in [5] came out at 4.5 µmol/g; in [12] it was 90.8 µmol/g.
Regarding `O=C1OC2=C(c3ccccc3)C(=O)OC2=C1c1ccccc1` [PULVINIC DILACTONE], in test [3], the result was inactive. Moreover, in test [5], the EC50 was more than 110 µmol/g.
In the case of `Cc1cc(O)c(C=O)c2c1C(=O)Oc1c(COC(=O)/C=C/C(=O)O)c(O)c(C(=O)O)c(C)c1O2` [FUMARPROTOCETRARIC ACID], the Activity in [2] came out at 0.45 g. Also, the outcome in test [3] was inactive. The compound further had a Time in test [4] of 24 days. Also, the EC50 in test [5] turned out to be 30.5 µmol/g.
As for `CC(=O)C1=C(O)C=C2Oc3c(C(C)=O)c(O)c(C)c(O)c3[C@]2(C)C1=O` [(-)-USNIC ACID], the EC50 came out at 1.2 µmol/g in test [5] and 8.6 µmol/g in test [12].
